Measurements taken from publication PMC10527514 (Gastroenterology, 2023).

Key:
Format in all cases: cell-based
PPARγ = biological target: T1, PPARγ (Homo sapiens, UniProt P37231); test: PathHunter nuclear hormone receptor cell assay, chemiluminescence
T1 sequence (P37231 1-505): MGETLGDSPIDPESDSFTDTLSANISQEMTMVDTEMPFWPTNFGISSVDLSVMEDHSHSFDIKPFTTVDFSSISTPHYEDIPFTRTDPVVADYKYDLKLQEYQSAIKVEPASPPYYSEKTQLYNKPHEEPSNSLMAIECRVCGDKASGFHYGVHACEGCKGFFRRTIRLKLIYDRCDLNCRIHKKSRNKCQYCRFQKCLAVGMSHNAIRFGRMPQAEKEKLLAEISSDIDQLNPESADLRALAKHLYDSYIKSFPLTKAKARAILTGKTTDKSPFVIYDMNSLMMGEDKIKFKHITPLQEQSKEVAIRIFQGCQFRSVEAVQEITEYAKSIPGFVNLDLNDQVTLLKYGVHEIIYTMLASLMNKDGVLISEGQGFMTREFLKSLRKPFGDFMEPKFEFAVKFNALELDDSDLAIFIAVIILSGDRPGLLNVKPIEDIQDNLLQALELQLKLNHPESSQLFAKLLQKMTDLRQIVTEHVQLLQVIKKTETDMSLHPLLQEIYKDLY

GPR84 = GPR84 (Homo sapiens, UniProt Q9NQS5); test: Hit Hunter cAMP assay in cAMP Hunter cells
PPARα = biological target: T2, PPARα (Homo sapiens, UniProt Q07869); test: PathHunter nuclear hormone receptor cell assay, chemiluminescence
T2 sequence (Q07869 1-468): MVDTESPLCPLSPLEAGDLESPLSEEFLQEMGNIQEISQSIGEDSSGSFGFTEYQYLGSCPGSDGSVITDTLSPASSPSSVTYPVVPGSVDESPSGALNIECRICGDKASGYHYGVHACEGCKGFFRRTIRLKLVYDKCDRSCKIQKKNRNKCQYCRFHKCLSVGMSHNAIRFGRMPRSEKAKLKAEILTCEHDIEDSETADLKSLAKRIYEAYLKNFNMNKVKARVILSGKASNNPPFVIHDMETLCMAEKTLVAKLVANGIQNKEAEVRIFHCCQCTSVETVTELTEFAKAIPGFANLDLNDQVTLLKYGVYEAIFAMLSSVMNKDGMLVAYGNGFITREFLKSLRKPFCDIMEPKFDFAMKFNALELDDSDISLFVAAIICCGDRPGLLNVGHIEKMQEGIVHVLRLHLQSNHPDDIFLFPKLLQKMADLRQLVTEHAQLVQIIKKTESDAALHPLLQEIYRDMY

Chain of GPR84 (Q9NQS5 whole entry): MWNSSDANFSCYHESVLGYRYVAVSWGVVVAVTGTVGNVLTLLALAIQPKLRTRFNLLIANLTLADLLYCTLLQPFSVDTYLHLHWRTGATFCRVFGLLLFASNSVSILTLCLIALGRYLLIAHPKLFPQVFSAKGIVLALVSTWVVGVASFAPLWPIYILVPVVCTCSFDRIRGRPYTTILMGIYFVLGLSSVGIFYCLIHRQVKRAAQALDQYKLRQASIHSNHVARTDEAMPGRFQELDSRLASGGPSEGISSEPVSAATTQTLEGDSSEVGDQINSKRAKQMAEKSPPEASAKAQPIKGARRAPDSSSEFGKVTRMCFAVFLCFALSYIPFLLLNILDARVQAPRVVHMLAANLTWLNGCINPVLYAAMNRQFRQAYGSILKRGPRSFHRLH

`CCCCCOc1cccc(C(=O)O)c1C` [SEFA-6179] showed an EC50 (PPARγ) of 40 µM, an EC50 (GPR84) of 12 µM and an EC50 (PPARα) of 4.4 µM.
